These results are taken from patent US11964973B2 (priority 2019, dated 2024).

The structures appear in SMILES notation. Read-outs that look alike come from different tables or passages of the source.

The target in one assay is human DGKζ (Homo sapiens (Human), UniProt Q13574). The assay can be described thus: biochemical. It counts as biochemical. As to conditions: read-out: DGKζ LIPGLO IC50.
The target in the next assay is DGKα (Homo sapiens (Human), UniProt P23743). Briefly: biochemical. It counts as biochemical. As to conditions: liposome (LIPGLO) assay; read-out: DGKα LIPGLO IC50.
Assay [1] deals with OT-1 CD8+ T cells with SIINFEKL-loaded MC38 tumor cells. The assay can be described thus: Murine cytotoxic T lymphocyte assay (IFN-γ). It counts as cell-based, mouse. As to conditions: murine cytotoxic T lymphocyte, IFN-γ, read-out: msCTL INFg IC50. From the text: Assay 6: Murine Cytotoxic T Lymphocyte Assay
An antigen-specific cytolytic T-cell (CTL) assay was developed to evaluate functionally the ability of DGKα and DGKζ inhibitors to enhance effector T cell mediated tumor cell killing activity. CD8+ T-cells isolated from the OT-1 transgenic mouse recognize antigen presenting cells, MC38, that present the ovalbumin derived peptide […]. Recognition of the cognate antigen initiates the cytolytic activity of the OT-1 antigen-specific CD8+ T cells.
Functional CTL cells were generated as follows: OT-1 splenocytes from 8-12 week old mice were isolated and expanded in the presence of the […] peptide at 1 μg/mL and mIL2 at 10 U/mL. After three days, fresh media with […] was added. On day 5 of the expansion, the CD8+ T cells were isolated and ready for use. Activated CTL cells may be stored frozen for 6 months. Separately, one million MC38 tumor cells were pulsed with 1 μg/mL of […]-OVA peptide for 3 hours at 37° C. The cells were washed (3×) with fresh media to remove excess peptide. Finally, CTL cells that were pretreated with DGK inhibitors for 1 hour in a 96-well U bottom plate were combined with the antigen loaded MC38 tumor cells at a 1:10 ratio. The cells were then spun at 700 rpm for 5 min and placed in an incubator overnight at 37° C. After 24 hours, the supernatant was collected for analysis of IFN-γ cytokine levels by AlphaLisa purchased from Perkin Elmer.

The next assay relates to naïve human CD8 T cells. Briefly: CellTiter-Glo CD8 T cell proliferation assay. It counts as cell-based. As to conditions: read-out: CD8 GLO Normalized EC50. On the procedure:
Assay 4: CellTiter-Glo CD8 T Cell Proliferation Assay
Frozen naïve human CD8 T cells were thawed in RPMI+10% FBS, incubated for 2 h in 37° C., and counted. The 384-well tissue culture plate was coated overnight at 4° C. with 20 μl anti-human CD3 at 0.1 μg/mL in plain RPMI, which was removed off the plate before 20 k/40 μL CD8 T cells with 0.5 μg/ml soluble anti-human CD28 were added to each well. The compounds were echoed to the cell plate immediately after the cells were plated. After 72 h incubation at 37° C. incubator, 10 μL CellTiter-glo reagent (Promega catalog number G7570) was added to each well. The plate was vigorously shaken for 5 mins, incubated at room temperature for another 15 mins and read on Envision for CD8 T cell proliferation. In analysis, 0.1 μg/mL anti-CD3 and 0.5 μg/mL anti-CD28 stimulated CD8 T cell signal was background.
In general terms: In ATP-based viability assays light output follows the ATP content of the culture.

Assay [2] has as its system Human venous whole blood (IFN-γ). The assay can be described thus: Human whole blood IFN-γ assay. It counts as cell-based. As to conditions: Homo sapiens, 24 h, human whole blood, anti-CD3 plus anti-CD28, 24 hours; read-out: INFg Whole Blood Normalized Agonist EC50. The protocol:
Assay 10: Human Whole Blood IFN-γ Assay
Human venous whole blood (22.5 μL per well), obtained from healthy donors, was pre-treated with compounds for one hour at 37° C. in a humidified 95% air/5% CO2 incubator. The blood was stimulated with 2.5 μL anti-human CD3 and anti-CD28 mAb at a final concentration of 1 μg/mL each for 24 hours at 37° C. IFN-γ in the supernatants was measured using AlphLISA kit (Cat #AL217).

Sequence of DGKα (P23743 whole entry, looked up): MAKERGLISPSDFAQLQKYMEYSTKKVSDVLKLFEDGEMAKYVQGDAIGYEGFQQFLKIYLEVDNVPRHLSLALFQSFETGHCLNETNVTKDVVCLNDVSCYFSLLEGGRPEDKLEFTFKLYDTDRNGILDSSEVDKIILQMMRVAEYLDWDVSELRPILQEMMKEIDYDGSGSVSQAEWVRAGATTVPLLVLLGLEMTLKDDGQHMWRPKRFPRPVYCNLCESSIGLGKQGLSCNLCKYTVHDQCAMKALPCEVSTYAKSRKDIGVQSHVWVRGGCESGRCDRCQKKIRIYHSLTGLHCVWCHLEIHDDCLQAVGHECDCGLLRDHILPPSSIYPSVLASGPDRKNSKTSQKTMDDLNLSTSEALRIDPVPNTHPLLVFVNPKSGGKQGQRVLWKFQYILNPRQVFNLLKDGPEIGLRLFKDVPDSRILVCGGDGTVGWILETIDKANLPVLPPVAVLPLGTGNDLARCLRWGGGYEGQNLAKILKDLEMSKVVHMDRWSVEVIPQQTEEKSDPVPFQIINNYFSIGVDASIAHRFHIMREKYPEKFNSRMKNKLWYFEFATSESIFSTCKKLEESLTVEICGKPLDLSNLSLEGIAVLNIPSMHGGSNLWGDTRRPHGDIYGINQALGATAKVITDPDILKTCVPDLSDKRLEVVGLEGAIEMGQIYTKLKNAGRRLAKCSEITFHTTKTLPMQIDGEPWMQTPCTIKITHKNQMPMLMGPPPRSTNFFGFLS
Sequence of human DGKζ (Q13574 whole entry, looked up): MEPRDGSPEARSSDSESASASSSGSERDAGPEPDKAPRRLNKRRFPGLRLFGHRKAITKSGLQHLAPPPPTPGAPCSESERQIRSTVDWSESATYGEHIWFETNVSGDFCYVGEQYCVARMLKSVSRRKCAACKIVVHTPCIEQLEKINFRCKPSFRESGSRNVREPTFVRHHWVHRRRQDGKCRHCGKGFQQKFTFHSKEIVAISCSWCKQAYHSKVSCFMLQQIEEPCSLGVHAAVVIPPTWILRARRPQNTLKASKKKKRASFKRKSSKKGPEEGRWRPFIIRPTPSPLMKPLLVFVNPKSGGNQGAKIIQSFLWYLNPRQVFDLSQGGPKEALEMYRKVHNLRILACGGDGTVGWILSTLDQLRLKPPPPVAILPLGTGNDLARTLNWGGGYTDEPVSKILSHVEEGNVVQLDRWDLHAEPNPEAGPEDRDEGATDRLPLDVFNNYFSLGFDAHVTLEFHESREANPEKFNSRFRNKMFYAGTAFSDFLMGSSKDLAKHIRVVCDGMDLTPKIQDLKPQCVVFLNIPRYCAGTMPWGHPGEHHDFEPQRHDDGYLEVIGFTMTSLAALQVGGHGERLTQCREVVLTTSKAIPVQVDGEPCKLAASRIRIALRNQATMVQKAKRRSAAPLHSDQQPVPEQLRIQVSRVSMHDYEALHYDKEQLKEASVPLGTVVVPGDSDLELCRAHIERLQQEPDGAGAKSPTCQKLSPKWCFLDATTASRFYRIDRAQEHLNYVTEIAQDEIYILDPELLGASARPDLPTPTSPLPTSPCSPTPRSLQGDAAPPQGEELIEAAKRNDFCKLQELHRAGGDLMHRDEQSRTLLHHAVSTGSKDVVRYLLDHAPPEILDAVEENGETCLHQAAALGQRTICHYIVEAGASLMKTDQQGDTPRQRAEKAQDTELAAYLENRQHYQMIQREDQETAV

As usually defined, the IC50 is the concentration that inhibits the measured activity by half. What is called EC50 is the concentration that produces a half-maximal response. Take `Cn1c(=O)c(C#N)c(N2CCC(Oc3ccc(C(F)(F)F)cc3)CC2)c2nc(Cl)ccc21` [Example 30, 6-chloro-1-methyl-2-oxo-4-(4-(4-(trifluoromethyl)phenoxy)piperidin-1-yl)-1,2-dihydro-1,5-naphthyridine-3-carbonitrile]: the IC50 was 240 µM at human DGKζ (liposome (LIPGLO) assay); 0.98 µM at DGKα; 3.5 µM in assay [1] (Mus musculus, MC-38). Besides, the EC50 with naïve human CD8 T cells (Homo sapiens) was found to be 10 µM.

Turning to `Cc1cc(OC(F)(F)F)ccc1OC1CCN(c2c(C#N)c(=O)n(C)c3ccc(Cl)nc23)CC1` [Example 29, -chloro-1-methyl-4-(4-(2-methyl-4-(trifluoromethoxy)phenoxy)piperidin-1-yl)-2-oxo-1,2-dihydro-1,5-naphthyridine-3-carbonitrile], the values for the concentration for half-maximal inhibition (IC50) (on human DGKζ; at DGKα; in assay [1]) were 240 µM, 3.8 µM and 10 µM, respectively. The EC50 in the assay with naïve human CD8 T cells amounted to 5.9 µM.

As to `Cc1cc(Br)ccc1OC1CCN(c2c(C#N)c(=O)n(C)c3ccc(Cl)nc23)CC1` [Example 26, 4-(4-(4-bromo-2-methylphenoxy)piperidin-1-yl)-6-chloro-1-methyl-2-oxo-1,2-dihydro-1,5-naphthyridine-3-carbonitrile], in assay [1] (Mus musculus, MC-38), the IC50 was 10 µM. Besides, the EC50 in the assay with naïve human CD8 T cells (Homo sapiens) came out at 2.7 µM.

As to `Cn1c(=O)c(C#N)c(N2CCC(Oc3cccc(Cl)c3)CC2)c2nc(Cl)ccc21` [Example 27, 6-chloro-4-(4-(3-chlorophenoxy)piperidin-1-yl)-1-methyl-2-oxo-1,2-dihydro-1,5-naphthyridine-3-carbonitrile], the IC50 in assay [1] (Mus musculus, MC-38) was found to be 7.4 µM. The EC50 in the assay with naïve human CD8 T cells (Homo sapiens) came out at 0.073 µM.

With `COc1cc(OC2CCN(c3c(C#N)c(=O)n(C)c4ccc(Cl)nc34)CC2)ccc1Cl` [Example 39, 6-chloro-4-(4-(4-chloro-3-methoxyphenoxy)piperidin-1-yl)-1-methyl-2-oxo-1,2-dihydro-1,5-naphthyridine-3-carbonitrile], the 50% inhibitory concentration (IC50) was determined as 14 µM at human DGKζ (liposome (LIPGLO) assay); 0.35 µM at DGKα; 3.7 µM in assay [1] (Mus musculus, MC-38). Moreover, in the assay on naïve human CD8 T cells (Homo sapiens), the EC50 was 0.13 µM.

For the molecule `Cn1c(=O)c(C#N)c(N2CCC(Oc3ccccc3)CC2)c2nc(Cl)ccc21` [Example 46, 6-chloro-1-methyl-2-oxo-4-(4-phenoxypiperidin-1-yl)-1,2-dihydro-1,5-naphthyridine-3-carbonitrile], the half-maximal inhibitory concentration (IC50) amounted to 27 µM at human DGKζ (liposome (LIPGLO) assay); 0.15 µM on DGKα; 8.5 µM in assay [1] (Mus musculus, MC-38). The 50% effective concentration (EC50) in the assay on naïve human CD8 T cells (Homo sapiens) came to 1.2 µM.

`Cn1c(=O)c(C#N)c(N2CCC(Oc3ccc(Cl)cc3)CC2)c2nc(Cl)ccc21` [Example 16, 6-chloro-4-(4-(4-chlorophenoxy)piperidin-1-yl)-1-methyl-2-oxo-1,2-dihydro-1,5-naphthyridine-3-carbonitrile]: the EC50 in assay [2] turned out to be 10 µM; in the assay with naïve human CD8 T cells (Homo sapiens), 0.093 µM. In addition, the IC50 at DGKα is 1.7 µM; in assay [1] (Mus musculus, MC-38), 1.1 µM.

As to `Cn1c(=O)c(C#N)c(N2CCC(Oc3cc(F)ccc3Cl)CC2)c2nc(Cl)ccc21` [Example 23, 6-chloro-4-(4-(2-chloro-5-fluorophenoxy)piperidin-1-yl)-1-methyl-2-oxo-1,2-dihydro-1,5-naphthyridine-3-carbonitrile], the IC50 worked out at 58 µM on human DGKζ (liposome (LIPGLO) assay); 66 µM at DGKα; 10 µM in assay [1] (Mus musculus, MC-38).

For `Cn1c(=O)c(C#N)c(N2CCC(Oc3ccc(OC(F)(F)F)cc3)CC2)c2nc(Br)ccc21` [Example 47, 6-Bromo-1-methyl-2-oxo-4-(4-(4-(trifluoromethoxy)phenoxy)piperidin-1-yl)-1,2-dihydro-1,5-naphthyridine-3-carbonitrile], the IC50 at human DGKζ (liposome (LIPGLO) assay) was 240 µM; at DGKα, 0.45 µM; in assay [1] (Mus musculus, MC-38), 0.68 µM. For the same molecule, in the assay with naïve human CD8 T cells (Homo sapiens), the EC50 was found to be 0.49 µM.

In the case of `Cn1c(=O)c(C#N)c(N2CCC(Oc3ccc(OC(F)(F)F)cc3Cl)CC2)c2nc(Cl)ccc21` [Example 41, 6-chloro-4-(4-(2-chloro-4-(trifluoromethoxy)phenoxy)piperidin-1-yl)-1-methyl-2-oxo-1,2-dihydro-1,5-naphthyridine-3-carbonitrile], the IC50 at human DGKζ (liposome (LIPGLO) assay) was determined as 23 µM; on DGKα it was 1.1 µM; in assay [1] (Mus musculus, MC-38), 10 µM. In addition, in the assay on naïve human CD8 T cells (Homo sapiens), the 50% effective concentration (EC50) was found to be 0.21 µM.

As for `Cn1c(=O)c(C#N)c(N2CCC(Oc3ccccc3OC(F)(F)F)CC2)c2nc(Cl)ccc21` [Example 33, 6-chloro-1-methyl-2-oxo-4-(4-(2-(trifluoromethoxy)phenoxy)piperidin-1-yl)-1,2-dihydro-1,5-naphthyridine-3-carbonitrile], the 50% inhibitory concentration (IC50) stood at 240 µM at human DGKζ (liposome (LIPGLO) assay); 2.8 µM at DGKα; 3.8 µM in assay [1] (Mus musculus, MC-38). Besides, the EC50 with naïve human CD8 T cells (Homo sapiens) worked out at 10 µM.

Take `Cc1cc(F)cc(OC2CCN(c3c(C#N)c(=O)n(C)c4ccc(Cl)nc34)CC2)c1` [Example 28]: the results for the IC50 (on human DGKζ (liposome (LIPGLO) assay); at DGKα; in assay [1]) were 5.4 µM, 1.6 µM and 10 µM, respectively.

As to `Cc1cccc(OC2CCN(c3c(C#N)c(=O)n(C)c4ccc(Cl)nc34)CC2)c1` [Example 22, 6-chloro-1-methyl-2-oxo-4-(4-(m-tolyloxy)piperidin-1-yl)-1,2-dihydro-1,5-naphthyridine-3-carbonitrile], the IC50 at human DGKζ (liposome (LIPGLO) assay) came out at 5.7 µM; on DGKα, 0.15 µM. Besides, in the assay on naïve human CD8 T cells (Homo sapiens), the EC50 was determined as 0.62 µM.

Turning to `CC(C)c1ccc(OC2CCN(c3c(C#N)c(=O)n(C)c4ccc(Cl)nc34)CC2)cc1` [Example 37, 6-chloro-4-(4-(4-isopropylphenoxy)piperidin-1-yl)-1-methyl-2-oxo-1,2-dihydro-1,5-naphthyridine-3-carbonitrile], the IC50 on human DGKζ (liposome (LIPGLO) assay) worked out at 240 µM; at DGKα it was 0.49 µM. In the assay with naïve human CD8 T cells (Homo sapiens), the EC50 worked out at 1.1 µM.

Take `Cn1c(=O)c(C#N)c(N2CCC(Oc3ccc(C#N)cc3)CC2)c2nc(Cl)ccc21` [Example 32, 6-chloro-4-(4-(4-cyanophenoxy)piperidin-1-yl)-1-methyl-2-oxo-1,2-dihydro-1,5-naphthyridine-3-carbonitrile]: the half-inhibitory concentration (IC50) in assay [1] (Mus musculus, MC-38) is 10 µM.

On to `Cn1c(=O)c(C#N)c(N2CCC(Oc3ccccc3F)CC2)c2nc(Cl)ccc21` [Example 44, 6-chloro-4-(4-(2-fluorophenoxy)piperidin-1-yl)-1-methyl-2-oxo-1,2-dihydro-1,5-naphthyridine-3-carbonitrile], for which the IC50 at human DGKζ (liposome (LIPGLO) assay) was 59 µM; on DGKα it was 1.7 µM. For the same molecule, the EC50 with naïve human CD8 T cells (Homo sapiens) stood at 1.5 µM.

Regarding `Cn1c(=O)c(C#N)c(N2CCC(Oc3ccc(OC(F)(F)F)cc3)CC2)c2nc(Cl)ccc21` [Example 19, 6-chloro-1-methyl-2-oxo-4-(4-(4-(trifluoromethoxy)phenoxy)piperidin-1-yl)-1,2-dihydro-1,5-naphthyridine-3-carbonitrile], the EC50 in assay [2] was determined as 10 µM; in the assay with naïve human CD8 T cells (Homo sapiens), 0.28 µM. For the same molecule, the IC50 is 0.32 µM at DGKα and 0.21 µM in assay [1] (Mus musculus, MC-38).

For `Cn1c(=O)c(C#N)c(N2CCC(Oc3cccc(F)c3)CC2)c2nc(Cl)ccc21` [Example 45, 6-chloro-4-(4-(3-fluorophenoxy)piperidin-1-yl)-1-methyl-2-oxo-1,2-dihydro-1,5-naphthyridine-3-carbonitrile], the IC50 in assay [1] (Mus musculus, MC-38) is 10 µM. In addition, in the assay with naïve human CD8 T cells (Homo sapiens), the EC50 came out at 0.098 µM.

For the molecule `COc1ccccc1OC1CCN(c2c(C#N)c(=O)n(C)c3ccc(Cl)nc23)CC1` [Example 35, 6-chloro-4-(4-(2-methoxyphenoxy)piperidin-1-yl)-1-methyl-2-oxo-1,2-dihydro-1,5-naphthyridine-3-carbonitrile], the IC50 on human DGKζ (liposome (LIPGLO) assay) was 12 µM; on DGKα, 0.29 µM. Further, in the assay on naïve human CD8 T cells (Homo sapiens), the EC50 was 0.21 µM.
